Laboratory results reported in the NIST ThermoML archive (doi:10.1016/j.tca.2006.01.020).

Assay: molar heat capacity at constant pressure
Settings: 101.33 kPa, Crystal, Small (less than 1 g) adiabatic calorimetry

[Ba+2].[O-2].[O-2].[O-2].[Zr+4] [barium zirconium(IV) oxide]
Settings | molar heat capacity at constant pressure [J/K/mol]
30.34 K | 8.73
30.45 K | 8.93
31.03 K | 9.36
31.64 K | 9.8
32.28 K | 10.4
32.94 K | 10.9
33.63 K | 11.4
34.33 K | 11.9
35.05 K | 12.4
35.78 K | 13
36.53 K | 13.5
37.28 K | 14.1
38.03 K | 14.7
38.8 K | 15.3
39.58 K | 15.9
40 K | 16.19
40.37 K | 16.4
41.18 K | 17.1
42 K | 17.7
42.84 K | 18.3
43.69 K | 19
44.56 K | 19.6
45.45 K | 20.2
46.36 K | 21
47.29 K | 21.6
48.24 K | 22.3
49.21 K | 23
50 K | 23.59
50.25 K | 23.7
51.26 K | 24.4
52.27 K | 25.2
53.27 K | 25.9
54.27 K | 26.6
55.27 K | 27.3
56.27 K | 28.1
57.27 K | 28.8
58.26 K | 29.5
59.25 K | 30.2
60 K | 30.79
60.25 K | 31
61.24 K | 31.6
62.3 K | 32.5
63.25 K | 33.2
64.23 K | 33.8
65.21 K | 34.5
66.2 K | 35.2
67.19 K | 35.9
68.19 K | 36.2
69.19 K | 36.9
70 K | 37.33
71.18 K | 38.3
72.18 K | 38.8
73.19 K | 39.5
74.19 K | 40
75.18 K | 40.7
76.18 K | 41.3
77.18 K | 42
78.18 K | 42.5
79.18 K | 43.1
80 K | 43.22
80.18 K | 43.6
81.18 K | 44.3
82.18 K | 44.7
83.18 K | 45.1
84.17 K | 45.7
85.17 K | 46.3
86.17 K | 46.7
87.17 K | 47.2
87.74 K | 46.8
89.5 K | 48.5
90 K | 48.58
91.29 K | 49.3
93.12 K | 50.1
94.99 K | 51.3
96.9 K | 52.1
98.84 K | 52.7
100 K | 53.49
100.82 K | 53.7
102.81 K | 54.6
104.8 K | 55.6
106.79 K | 56.6
108.78 K | 57.5
110.77 K | 58.4
112.76 K | 59.4
114.75 K | 60.3
116.74 K | 61.2
118.72 K | 62
120 K | 62.3
120.69 K | 62.8
122.66 K | 63.7
124.65 K | 64.5
126.64 K | 65.3
128.63 K | 66.1
130.62 K | 66.8
132.27 K | 67.5
133.6 K | 68
134.94 K | 68.5
136.28 K | 69
137.64 K | 69.5
139.02 K | 70
140 K | 70.04
140.41 K | 70.1
141.81 K | 70.6
143.23 K | 71.1
144.66 K | 71.7
146.11 K | 72.2
147.57 K | 72.7
149.04 K | 73.2
150.53 K | 73.9
152.03 K | 74.3
153.55 K | 74.9
155.09 K | 75.3
156.64 K | 75.9
158.2 K | 76.3
159.79 K | 76.9
160 K | 76.91
161.38 K | 77.3
163 K | 77.9
164.63 K | 78.4
166.26 K | 78.9
167.93 K | 79.4
169.61 K | 79.9
171.3 K | 80.4
173.01 K | 81
174.74 K | 81.4
176.49 K | 82
178.25 K | 82.3
180 K | 82.99
180.03 K | 83
181.83 K | 83.5
183.65 K | 84.1
185.48 K | 84.7
187.34 K | 85.1
189.21 K | 85.5
191.1 K | 86.2
193 K | 86.7
194.93 K | 87
196.88 K | 87.9
198.84 K | 88
200 K | 88.29
200.83 K | 88.7
202.81 K | 89
204.8 K | 89.7
206.78 K | 90.5
208.76 K | 90.8
210.75 K | 91.3
212.73 K | 92.4
214.71 K | 91.7
216.7 K | 92.1
218.69 K | 92.5
220 K | 92.87
220.66 K | 93
222.65 K | 93.4
224.62 K | 94
226.6 K | 94.3
228.58 K | 94.9
230.56 K | 95.7
232.54 K | 95.8
234.52 K | 95.9
236.49 K | 96.5
238.47 K | 96.6
240 K | 96.81
240.44 K | 97.1
242.41 K | 97.6
244.39 K | 97.6
246.36 K | 98.4
248.33 K | 98.2
250.31 K | 98.9
252.27 K | 99.4
254.25 K | 99.7
256.22 K | 99.7
258.19 K | 99.8
260 K | 100.3
260.16 K | 100.3
262.12 K | 100.7
264.08 K | 100.7
266.04 K | 101.8
268.01 K | 102.2
269.99 K | 101.6
271.94 K | 102.6
273.9 K | 103
275.86 K | 103.2
277.83 K | 103.3
279.79 K | 103.8
280 K | 103.7
281.74 K | 104.6
283.71 K | 105.2
285.68 K | 105
287.63 K | 105
289.59 K | 105.2
291.54 K | 107
293.51 K | 106.2
295.49 K | 107.4
297.42 K | 106.6
298.15 K | 107
299.39 K | 106.6
300 K | 107.4
301.32 K | 107.9
